Results reported in patent US20250360113A1, “ADMINISTRATION OF DHB TO INCREASE BENEFIT OF LOSING WEIGHT OF INTERMITTENT FASTING” (NANJING NUTRABUILDING BIO-TECH CO., LTD., priority 2023, published 2025).

Test: Insulin tolerance test (ITT)
Format: in vivo, C57BL/6 male mice
Settings: HFD obese mice
Description: 50 C57BL/6 male mice aged about 8 weeks, are randomly assigned to five study groups (GA, GB1, GB2, GB3, GB4) of ten mice each (one cage, n=5 per condition). Mice were maintained in a pathogen free condition under a strict 12 h light/dark cycle (0600/1800 h) with 12-15 cycles/hour of air change. Mice were provided with access to respective feed and water ad libitum as per experimental conditions. Mice were housed under controlled laboratory conditions of temperature and humidity at 23±2° C. and 50±10% RH, respectively. Each study group consisted of ten animals, and treatment details of the individual study groups are given below: • Group A (GA, NC): Normal mice, maintained on normal diet (standard chow, 12% calories from fat; 23% calories from protein and 65% calories from carbohydrates) for 8 weeks, receiving neither EODF nor DHB treatment. • Group B1 (GB1): Obese mice, maintained on high fat diet (HFD, 60% calories from fat, 20% calories from protein, 20% calories from carbohydrate) for 8 weeks, receiving neither EODF nor DHB treatment. • Group B2 (GB2): Obese mice, maintained on HFD for 8 weeks, receiving only EODF and no DHB treatment. • Group B3 (GB3): Obese mice, maintained on HFD for 8 weeks, receiving only DHB treatment and no EODF. • Group B4 (GB4): Obese mice, maintained on HFD for 8 weeks, receiving DHB treatment and EODF combination. DHB was administered daily via intragastric injection (i.g.) according to a level of 70 mg/kg body weight. Mice not receiving DHB were given orally with ultrapure water. Insulin tolerance test (ITT): To measure […], ITT were measured in the 6-h fasting mice (NC and HFD groups) by using a glucose analyzer. The glucose concentrations were measured by venous bleeding at 0, 15, 30, 60 and 120 min after an i.p. injection of human insulin at 0.75 U/kg. Towards the end of the final week of the study, ITT was performed for all mice (NC and HFD groups).

[1] = DHB + EODF combination vs EODF only

Compound: COc1ccc2c(c1OC)CN1CCc3cc4c(cc3C1=C2)OCO4 [DHB, Dihydroberberine]
- insulin levels (DHB 70 mg/kg i.g. daily vs no DHB with and without EODF, FIGS. 11-14): greater reduction
- improving the insulin tolerance [1]: greater effects
- reducing the insulin levels [1]: greater effects
- insulin tolerance (human insulin 0.75 U/kg i.p., DHB vs no DHB with and without EODF): better
